Source: paper PMC4154469, “Extracellular gentamicin reduces the activity of connexin hemichannels and interferes with purinergic Ca^2+ signaling in HeLa cells” (Frontiers in Cellular Neuroscience, 2014)

Experiments:
[1] = molecular target: T1, connexin45 (mCx45) hemichannel (Mus musculus, UniProt P28229); assay: ethidium uptake in HeLa-mCx45 cells, […] streptomycin; type: cell-based
T1 construct: gene Gjc1; mouse Cx45 (NM_001159383.1) stably expressed in HeLa cells

[2] = molecular target: T2, connexin43 (mCx43) hemichannel (Mus musculus, UniProt P23242); assay: ethidium uptake in HeLa-mCx43 cells, […] streptomycin; type: cell-based
T2 construct: gene Gja1; mouse Cx43 (NM_010288.3) stably expressed in HeLa cells
T2 sequence (P23242 2-382): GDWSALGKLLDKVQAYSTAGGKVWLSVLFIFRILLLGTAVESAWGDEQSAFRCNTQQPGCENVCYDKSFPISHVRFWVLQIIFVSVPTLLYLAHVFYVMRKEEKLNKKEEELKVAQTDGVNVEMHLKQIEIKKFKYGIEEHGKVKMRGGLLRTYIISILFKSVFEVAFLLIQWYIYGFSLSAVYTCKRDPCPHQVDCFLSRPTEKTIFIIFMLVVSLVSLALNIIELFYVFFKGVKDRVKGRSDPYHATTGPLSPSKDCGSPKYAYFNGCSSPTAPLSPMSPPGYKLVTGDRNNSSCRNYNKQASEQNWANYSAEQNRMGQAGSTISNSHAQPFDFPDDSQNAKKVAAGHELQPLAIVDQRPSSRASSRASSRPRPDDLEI

T1 sequence (P28229 whole entry): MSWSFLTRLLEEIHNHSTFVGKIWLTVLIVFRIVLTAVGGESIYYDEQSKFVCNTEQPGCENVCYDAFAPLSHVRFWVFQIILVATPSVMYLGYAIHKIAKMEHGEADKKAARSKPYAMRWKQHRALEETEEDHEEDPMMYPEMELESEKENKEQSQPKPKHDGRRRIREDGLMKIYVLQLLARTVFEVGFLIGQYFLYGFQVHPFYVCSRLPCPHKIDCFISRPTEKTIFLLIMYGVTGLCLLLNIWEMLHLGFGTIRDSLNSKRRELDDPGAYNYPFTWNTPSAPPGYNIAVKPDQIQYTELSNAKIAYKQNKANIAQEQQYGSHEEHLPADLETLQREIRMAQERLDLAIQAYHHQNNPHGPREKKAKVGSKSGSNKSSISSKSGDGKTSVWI

In the case of `[H]/N=C(/N)N[C@H]1[C@H](O)[C@@H](O)[C@H](O[C@@H]2O[C@@H](C)[C@](O)(C=O)[C@H]2O[C@@H]2O[C@@H](CO)[C@H](O)[C@@H](O)[C@@H]2NC)[C@@H](N/C(N)=N\[H])[C@@H]1O` [streptomycin], the “ethidium uptake in HeLa-mCx45 cells, 200 μM streptomycin” value [1] is reported as “In HeLa-mCx45 cells, Etd uptake was reduced to values below the ones recorded under control condition” and the “ethidium uptake in HeLa-mCx43 cells, 200 μM streptomycin” value [2] is reported as “also inhibited the Etd uptake of HeLa-rCx26 (Figures 2E,F), -mCx43 and -mCx45 cells in DCFS”.
